In the NIST ThermoML archive (doi:10.1021/acs.jced.8b00403):
± gives the expanded uncertainty stated by the source.

Assay: wn = mass fraction of the nth substance listed
Conditions: 101.33 kPa, Liquid; for viscosity: Concentric cylinders viscometry; for mass density: Vibrating tube method

## CC(O)CO (stereo unspecified) [1,2-propanediol] + O
303.15 K, w1 = 0.0988
  viscosity: 1.148 ± 0.34 mPa·s
  mass density: 1002.6 ± 8 kg/m3
303.15 K, w1 = 0.198
  viscosity: 1.599 ± 0.48 mPa·s
  mass density: 1010.6 ± 8 kg/m3
303.15 K, w1 = 0.3312
  viscosity: 2.503 ± 0.75 mPa·s
  mass density: 1021 ± 8 kg/m3
303.15 K, w1 = 0.5005
  viscosity: 4.51 ± 1.4 mPa·s
  mass density: 1031.4 ± 8 kg/m3
303.15 K, w1 = 0.672
  viscosity: 8.01 ± 2.4 mPa·s
  mass density: 1035.9 ± 8 kg/m3
303.15 K, w1 = 0.8044
  viscosity: 13.28 ± 4 mPa·s
  mass density: 1035.4 ± 8 kg/m3
303.15 K, w1 = 0.9481
  viscosity: 26.09 ± 7.8 mPa·s
  mass density: 1030.8 ± 8 kg/m3
303.15 K, w1 = 1
  viscosity: 33.26 ± 10 mPa·s
  mass density: 1028.1 ± 8 kg/m3
313.15 K, w1 = 0.0988
  viscosity: 0.9194 ± 0.28 mPa·s
  mass density: 999 ± 8 kg/m3
313.15 K, w1 = 0.198
  viscosity: 1.241 ± 0.37 mPa·s
  mass density: 1006 ± 8 kg/m3
313.15 K, w1 = 0.3312
  viscosity: 1.858 ± 0.56 mPa·s
  mass density: 1015.3 ± 8 kg/m3
313.15 K, w1 = 0.5005
  viscosity: 3.166 ± 0.95 mPa·s
  mass density: 1024.5 ± 8 kg/m3
313.15 K, w1 = 0.672
  viscosity: 5.398 ± 1.6 mPa·s
  mass density: 1028.4 ± 8 kg/m3
313.15 K, w1 = 0.8044
  viscosity: 8.638 ± 2.6 mPa·s
  mass density: 1027.8 ± 8 kg/m3
313.15 K, w1 = 0.9481
  viscosity: 16 ± 4.8 mPa·s
  mass density: 1023.2 ± 8 kg/m3
313.15 K, w1 = 1
  viscosity: 19.92 ± 6 mPa·s
  mass density: 1020.6 ± 8 kg/m3
323.15 K, w1 = 0.0988
  viscosity: 0.7541 ± 0.23 mPa·s
  mass density: 994.4 ± 8 kg/m3
323.15 K, w1 = 0.198
  viscosity: 0.9933 ± 0.3 mPa·s
  mass density: 1000.8 ± 8 kg/m3
323.15 K, w1 = 0.3312
  viscosity: 1.436 ± 0.43 mPa·s
  mass density: 1009.2 ± 8 kg/m3
323.15 K, w1 = 0.5005
  viscosity: 2.345 ± 0.7 mPa·s
  mass density: 1017.4 ± 8 kg/m3
323.15 K, w1 = 0.672
  viscosity: 3.852 ± 1.2 mPa·s
  mass density: 1020.8 ± 8 kg/m3
323.15 K, w1 = 0.8044
  viscosity: 5.938 ± 1.8 mPa·s
  mass density: 1020.1 ± 8 kg/m3
323.15 K, w1 = 0.9481
  viscosity: 10.4 ± 3.1 mPa·s
  mass density: 1015.6 ± 8 kg/m3
323.15 K, w1 = 1
  viscosity: 12.68 ± 3.8 mPa·s
  mass density: 1013 ± 8 kg/m3
333.15 K, w1 = 0.0988
  viscosity: 0.6304 ± 0.19 mPa·s
  mass density: 989.3 ± 8 kg/m3
333.15 K, w1 = 0.198
  viscosity: 0.8167 ± 0.25 mPa·s
  mass density: 995.4 ± 8 kg/m3
333.15 K, w1 = 0.3312
  viscosity: 1.145 ± 0.34 mPa·s
  mass density: 1002.7 ± 8 kg/m3
333.15 K, w1 = 0.5005
  viscosity: 1.802 ± 0.54 mPa·s
  mass density: 1010 ± 8 kg/m3
333.15 K, w1 = 0.672
  viscosity: 2.852 ± 0.86 mPa·s
  mass density: 1013 ± 8 kg/m3
333.15 K, w1 = 0.8044
  viscosity: 4.247 ± 1.3 mPa·s
  mass density: 1012.2 ± 8 kg/m3
333.15 K, w1 = 0.9481
  viscosity: 7.094 ± 2.1 mPa·s
  mass density: 1007.8 ± 8 kg/m3
333.15 K, w1 = 1
  viscosity: 8.498 ± 2.5 mPa·s
  mass density: 1005.3 ± 8 kg/m3
343.15 K, w1 = 0.0988
  viscosity: 0.5375 ± 0.16 mPa·s
  mass density: 983.5 ± 8 kg/m3
343.15 K, w1 = 0.198
  viscosity: 0.6869 ± 0.21 mPa·s
  mass density: 989.2 ± 8 kg/m3
343.15 K, w1 = 0.3312
  viscosity: 0.9408 ± 0.28 mPa·s
  mass density: 996 ± 8 kg/m3
343.15 K, w1 = 0.5005
  viscosity: 1.425 ± 0.43 mPa·s
  mass density: 1002.3 ± 8 kg/m3
343.15 K, w1 = 0.672
  viscosity: 2.188 ± 0.66 mPa·s
  mass density: 1004.9 ± 8 kg/m3
343.15 K, w1 = 0.8044
  viscosity: 3.161 ± 0.95 mPa·s
  mass density: 1004.1 ± 8 kg/m3
343.15 K, w1 = 0.9481
  viscosity: 5.053 ± 1.5 mPa·s
  mass density: 999.8 ± 8 kg/m3
343.15 K, w1 = 1
  viscosity: 5.95 ± 1.8 mPa·s
  mass density: 997.7 ± 8 kg/m3
353.15 K, w1 = 0.0988
  viscosity: 0.4666 ± 0.14 mPa·s
  mass density: 977.2 ± 8 kg/m3
353.15 K, w1 = 0.198
  viscosity: 0.5856 ± 0.18 mPa·s
  mass density: 982.5 ± 8 kg/m3
353.15 K, w1 = 0.3312
  viscosity: 0.7888 ± 0.24 mPa·s
  mass density: 988.9 ± 8 kg/m3
353.15 K, w1 = 0.5005
  viscosity: 1.162 ± 0.35 mPa·s
  mass density: 994.6 ± 8 kg/m3
353.15 K, w1 = 0.672
  viscosity: 1.733 ± 0.52 mPa·s
  mass density: 996.9 ± 8 kg/m3
353.15 K, w1 = 0.8044
  viscosity: 2.433 ± 0.73 mPa·s
  mass density: 996 ± 8 kg/m3
353.15 K, w1 = 0.9481
  viscosity: 3.734 ± 1.1 mPa·s
  mass density: 991.9 ± 8 kg/m3
353.15 K, w1 = 1
  viscosity: 4.332 ± 1.3 mPa·s
  mass density: 989.5 ± 8 kg/m3
